# Laboratory results taken from PubChem BioAssay (NCI).
#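 Exposure lasted 48 hours, with cells grown in 96-well plates and compounds tested at five concentrations. GI50 is the concentration that inhibits growth by half. Definition used: TGI = concentration required for complete inhibition of growth.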
# Assays:
# Experiment in all cases: inhibition of tumour cell growth, NCI panel, 48 h
# [1] = test system: NCI/ADR-RES ovarian
# [2] = test system: SNB-19 CNS
# [3] = test system: NCI-H23 lung
# [4] = test system: HS 578T breast
# [5] = test system: TK-10 renal
# [6] = test system: LOX IMVI melanoma
# [7] = test system: M14 melanoma
# [8] = test system: MDA-MB-435
# [9] = test system: CAKI-1 renal
# [10] = test system: SF-268 CNS
SMILES,GI50 [1] [µM],TGI [1] [µM],GI50 [2] [µM],TGI [2] [µM],GI50 [3] [µM],TGI [3] [µM],GI50 [4] [µM],TGI [4] [µM],GI50 [5] [µM],TGI [5] [µM],GI50 [6] [µM],TGI [6] [µM],GI50 [7] [µM],TGI [7] [µM],GI50 [8] [µM],TGI [8] [µM],GI50 [9] [µM],TGI [9] [µM],GI50 [10] [µM],TGI [10] [µM]
N#C/C(=C\c1ccc(-c2ccc(Cl)cc2)o1)C(=O)Nc1ncc(Cc2ccc(Cl)cc2)s1,1.87,6.31,2.77,12.8,1.82,4.17,1.59,7.8,2,3.71,2.62,7.55,2.04,6.08,2.65,> 100,1.63,3.46,2.68,19.8
Oc1ccc2cc(Br)ccc2c1-c1c(O)ccc2cc(Br)ccc12,2.97,9.22,3.92,15.9,2.23,5.82,3.7,23.3,2.52,5.86,1.81,3.41,3.91,14,3.04,11.2,2.27,8.77,3.27,13.2
CC1=NN(c2ccccc2)C(=O)C1N=Nc1ccc([As](=O)(O)O)c(O)c1 (configuration not stated),,> 100,,> 100,,> 100,,> 100,,> 100,,> 100,,> 100,,> 100,,> 100,,> 100
C[n+]1c(/C=C\c2ccc(Cl)cc2)ccc2ccccc21,> 100,> 100,4.49,> 100,31,> 100,27.4,> 100,> 100,> 100,37.4,> 100,12.9,46.7,21.5,66.4,66.6,> 100,29.8,> 100
Cn1c2ccccc2c(=S)c2ccccc21,,> 100,,> 100,,> 100,,> 100,,> 100,,> 100,,> 100,,> 100,,> 100,,> 100
COC(=O)Nc1nc2ccc(Oc3ccc(NC(=O)Nc4cccc(C(=O)O)c4)cc3)cc2[nH]1,6.13,> 17.4,9.36,> 25,9.64,> 25,4.28,24.5,> 23.1,> 25,> 14.6,> 25,6.75,> 25,1.32,6.03,> 23.8,> 25,11.3,> 25
C=C1C(=O)O[C@@H]2C[C@@]3(C)CCC[C@H](C)C3=C[C@H]12,,27.9,,30.1,,17.5,,19.1,,9.35,,22.9,,12.6,,17.2,,17.3,,26.7
COc1cc(O)c2c(O)c3c(c4c2c1[C@]1(C4)C(C)=CCCC1(C)C)[C@H](O)[C@@]1(O)CC(=O)C(C(N)=O)=C(O)[C@@]1(O)C3=O,,1.5,,1.94,,1.34,,2.25,,1.18,,1.71,,1.58,,1.2,,0.972,,1.81
CCCN(CCC)C(=O)C1=Cc2ccc(-c3ccc(C(=O)N4CCCC4)cc3)cc2N=C(N)C1,19.4,62.2,18.8,> 100,8.92,38.9,16,59,19.6,70.1,9.48,24.2,5.66,22.7,2.51,7.58,7.66,40.3,15.5,46
O=C1NN(c2ccc(C(=O)O)cc2)C(=O)/C1=C\c1ccc([N+](=O)[O-])o1,89.3,> 100,> 100,> 100,75.1,> 100,> 100,> 100,25.5,66.8,11.1,31.2,28.6,88,32.1,> 100,16.1,31.1,61.2,> 100
COc1ccc(N(CC(=O)NCCC[Te]c2ccccc2)C(=O)c2ccccc2)cc1,3.23,10.8,4.06,59,3.17,9.36,2.97,8.41,3.85,11.4,3.69,14.3,4.21,15.4,8.06,30.2,2.98,14.9,3.19,10.8
O=[N+]([O-])c1ccc(Br)c([N+](=O)[O-])c1,2.39,5.69,2.9,9.28,1.82,3.66,1.98,4.97,2.3,6.22,1.67,3.38,1.74,3.27,1.85,3.58,0.406,0.954,1.93,3.94
COc1ccc(-c2[nH]c3ccccc3c2C=C(C#N)C#N)cc1,0.335,4.7,1.3,36.5,0.6,> 42.8,0.201,,0.917,> 71.7,1.73,> 100,0.289,,0.13,0.469,0.625,,0.708,65.6
COc1ccc(CCN2C(=O)C=CC2=O)cc1OC,,74.5,,37.2,,53.8,,99.6,,33.2,,36.9,,24.1,,34,,27.4,,54.4
Cn1cc(-c2nc(-c3c[nH]c4ncccc34)cs2)c2cc(F)ccc21,2.47,7.66,3.82,20,2.4,10.1,4.23,> 100,2.78,15.3,2.48,7.06,2.93,9.74,1.12,4.88,2.2,8.44,3.32,22.5
CC(=O)N1c2ccccc2C23CCN(C)CC4C(C)OCC(C4CC2=O)C13 (configuration not stated),,> 100,,> 100,,> 100,,> 100,,> 100,,> 100,,> 100,,> 100,,> 100,,> 100
CCOc1cccc(/C=N/NC(=O)c2ccc(Nc3ccnc(C(F)(F)F)c3)cc2)c1O,3.62,> 63.2,4.69,> 100,2.26,38.6,6.31,> 100,2.48,> 100,0.6,24.5,1.19,> 24.6,6.19,> 100,1.36,> 100,1.07,> 100
Cn1cc(C2=C(c3cccc4ccccc34)C(=O)NC2=O)c2ccccc21,9.59,> 25,14,> 25,8.92,> 25,6.69,> 24,9.14,> 23.9,6.96,> 25,11.5,> 25,6.06,> 25,5.31,> 22.9,9.17,> 25
Cn1nccc1Nc1nccc(-c2cc3c(s2)C(C)(C)N(CCN2CCOCC2)C3=O)n1,56,> 100,41.9,> 100,0.858,> 100,15.9,> 100,1.31,> 100,0.734,> 100,0.312,> 37.4,0.852,> 100,6.66,> 100,27.8,> 100
O=C(CN1CCN(c2ncnc3ccccc23)CC1)Nc1ccc(Cl)cc1C(=O)c1ccccc1Cl,3.12,16.3,1.71,12.2,1.18,3.87,0.478,3.7,0.501,4.44,0.207,0.471,0.919,2.88,0.589,2,1.46,7.01,0.686,13
C1=Cc2ccccc2Nc2ccccc21,> 100,> 100,> 100,> 100,> 100,> 100,> 100,> 100,> 100,> 100,> 100,> 100,> 100,> 100,> 100,> 100,> 100,> 100,> 100,> 100
O=c1c2cccc(Cl)c2sc2c(NCCCNCCO)nc3ccccc3c12,2.98,12.1,5.8,20,3.62,16.5,2.95,14.8,3.07,7.69,1.41,2.77,1.79,3.54,1.82,3.55,3.79,17.6,3.66,16.7
COc1ccc2c(c1)c(-c1ccc(-c3cn(S(=O)(=O)c4ccccc4)c4ccc(OC)cc34)s1)cn2S(=O)(=O)c1ccccc1,> 100,> 100,> 100,> 100,> 100,> 100,> 100,> 100,> 100,> 100,> 100,> 100,> 100,> 100,> 100,> 100,> 100,> 100,> 100,> 100
O=C(Nc1ccccc1O)c1cccc(NC2=C(Cl)C(=O)N(Cc3ccccc3)C2=O)c1,3.35,11.8,13.9,37.5,3.44,9.38,5.28,17.8,4.69,13.4,1.62,3.6,4.35,11.3,6.03,17.7,5.12,12.7,11.3,27.5
CC[C@@H](C(=O)[C@@H](C)[C@@H](O)[C@H](C)[C@@H]1O[C@@H]([C@@H](CC)C(=O)O)CC[C@@H]1C)C1O[C@]2(C=CC(=O)[C@]3(CC[C@@](C)([C@H]4CC[C@](O)(CC)[C@H](C)O4)O3)O2)[C@H](C)C[C@@H]1C (some centres not stated),0.766,21.1,0.4,6.96,0.0979,8.93,0.183,14.9,2.08,25.8,0.71,13.8,1.41,3.53,1.21,2.8,0.765,11.8,2.12,15.7
CC(C)(C)NC(C1=CC(C)(C)c2ccccc2C1=O)c1ccccc1 (configuration not stated),2.45,6.29,3.36,14.2,1.49,3.17,1.43,6.08,1.75,3.39,1.42,2.73,1.52,2.85,1.98,5.4,3.26,13.4,1.38,2.74
